Measurements published in patent US11685746B2, “Heteroaryl compounds for treating Huntington's disease” (PTC THERAPEUTICS, INC., priority 2018, dated 2023).

System: Endogenous Huntingtin Protein
Experiment: Endogenous Huntingtin Protein Assay (MSD plates, MW1 or MAB2166 capture antibody)
Assay type: cell-based
Conditions: Table 1
Procedure, shortened: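 Sandwich MSD immunoassay: plates were coated overnight at 4° C with MW1 (expanded polyQ) or MAB2166 capture antibody at 1 μg/mL, then blocked with 5% BSA. Samples were bound overnight at 4° C, followed by rabbit mAb #5656S and SULFO-TAG anti-rabbit detection, each at 0.25 μg/mL for 1 h at room temperature. Signal was read by electrochemiluminescence.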

Row | SMILES | IC50 [nM]
1 | CN(c1nc2sc(-n3ccccc3=O)nc2s1)[C@@H]1C[C@H]2CC[C@@H](C1)N2 [Compound 187, 1-(5-{[(1R,3s,5S)-8-azabicyclo[3.2.1]octan-3-yl](methyl)amino}[1,3]thiazolo[5,4-d][1,3]thiazol-2-yl)pyridin-2(1H)-one] | 100 to 500
2 | CN(c1nc2sc(-c3cc(F)c(-c4cn[nH]c4)cc3F)nc2s1)[C@@H]1C[C@H]2CC[C@@H](C1)N2 [Compound 158, N-[(1R,3s,5S)-8-azabicyclo[3.2.1]octan-3-yl]-5-[2,5-difluoro-4-(1H-pyrazol-4-yl)phenyl]-N-methyl[1,3]thiazolo[5,4-d][1,3]thiazol-2-amine] | ≤ 100
3 | Cc1ncc(-c2cnc(-c3nc4sc(N(C)[C@@H]5C[C@H]6CC[C@@H](C5)N6)nc4s3)c(O)c2)s1 [Compound 199, 2-(5-{[(1R,3s,5S)-8-azabicyclo[3.2.1]octan-3-yl](methyl)amino}[1,3]thiazolo[5,4-d][1,3]thiazol-2-yl)-5-(2-methyl-1,3-thiazol-5-yl)pyridin-3-ol] | ≤ 100
4 | CN(c1nc2sc(-c3ncc(-n4nccn4)cc3O)nc2s1)C1CCNCC1 [Compound 214, 2-{5-[methyl(piperidin-4-yl)amino][1,3]thiazolo[5,4-d][1,3]thiazol-2-yl}-5-(2H-1,2,3-triazol-2-yl)pyridin-3-ol] | 500 to 1000
5 | CN(c1nc2sc(-c3ncc(-c4cn[nH]c4)c4cc[nH]c34)nc2s1)[C@H]1C[C@]2(C)CC[C@](C)(C1)N2 [Compound 154, N-[(1R,3s,5S)-1,5-dimethyl-8-azabicyclo[3.2.1]octan-3-yl]-N-methyl-5-[4-(1H-pyrazol-4-yl)-1H-pyrrolo[2,3-c]pyridin-7-yl][1,3]thiazolo[5,4-d][1,3]thiazol-2-amine] | ≤ 100
6 | CC1CC(N(C)c2nc3sc(-c4ncc(-c5cn[nH]c5)cn4)nc3s2)CCN1C (centres unmarked) [Compound 129, N-(1,2-dimethylpiperidin-4-yl)-N-methyl-5-[5-(1H-pyrazol-4-yl)pyrimidin-2-yl][1,3]thiazolo[5,4-d][1,3]thiazol-2-amine] | 100 to 500
7 | CN1CCC2(CC1)CCN2c1nc2sc(-c3ncc(-c4cn[nH]c4)cc3O)nc2s1 [Compound 179, 2-[5-(7-methyl-1,7-diazaspiro[3.5]nonan-1-yl)[1,3]thiazolo[5,4-d][1,3]thiazol-2-yl]-5-(1H-pyrazol-4-yl)pyridin-3-ol] | ≤ 100
8 | CN(c1nc2sc(-n3cnc(-c4cn[nH]c4)cc3=O)nc2s1)C1CC(C)(C)NC(C)(C)C1 [Compound 140, 3-{5-[methyl(2,2,6,6-tetramethylpiperidin-4-yl)amino][1,3]thiazolo[5,4-d][1,3]thiazol-2-yl}-6-(1H-pyrazol-4-yl)pyrimidin-4(3H)-one] | ≤ 100
9 | C[C@H]1C[C@H](Oc2nc3sc(-c4ncc(-c5nnn(C)n5)c5cc[nH]c45)nc3s2)CCN1 [Compound 81, 7-(5-{[(2S,4R)-2-methylpiperidin-4-yl]oxy}[1,3]thiazolo[5,4-d][1,3]thiazol-2-yl)-4-(2-methyl-2H-tetrazol-5-yl)-1H-pyrrolo[2,3-c]pyridine] | ≤ 100
10 | Cc1ncc(-c2cnc(-c3nc4sc(N(C)C5CCNCC5)nc4s3)c(O)c2)o1 [Compound 223, 5-(2-methyl-1,3-oxazol-5-yl)-2-{5-[methyl(piperidin-4-yl)amino][1,3]thiazolo[5,4-d][1,3]thiazol-2-yl}pyridin-3-ol] | ≤ 100
11 | CN(c1nc2sc(-c3cnc(-c4cnn(C)c4)cn3)nc2s1)C1CC(C)(C)NC(C)(C)C1 [Compound 94, N-methyl-5-[5-(1-methyl-1H-pyrazol-4-yl)pyrazin-2-yl]-N-(2,2,6,6-tetramethylpiperidin-4-yl)[1,3]thiazolo[5,4-d][1,3]thiazol-2-amine] | ≤ 100
12 | CN(c1nc2sc(-c3ccc(-c4ccn(C)c(=O)c4)cc3O)nc2s1)C1CC(C)(C)NC(C)(C)C1 [Compound 46] | ≤ 100
13 | C[C@@H]1C[C@@H](Oc2nc3sc(-c4ccc(-c5cn[nH]c5)c5cc[nH]c45)nc3s2)CCN1 [Compound 82, 7-(5-{[(2R,4S)-2-methylpiperidin-4-yl]oxy}[1,3]thiazolo[5,4-d][1,3]thiazol-2-yl)-4-(1H-pyrazol-4-yl)-1H-indole] | ≤ 100
14 | CCn1cc(-c2cnc(-c3nc4sc(N(C)C5CC(C)(C)NC(C)(C)C5)nc4s3)c(O)c2)cn1 [Compound 50, 5-(1-ethyl-1H-pyrazol-4-yl)-2-{5-[methyl(2,2,6,6-tetramethylpiperidin-4-yl)amino][1,3]thiazolo[5,4-d][1,3]thiazol-2-yl}pyridin-3-ol] | 100 to 500
15 | COc1cc(-c2cn[nH]c2)ccc1-c1nc2sc(N(C)C3CCNCC3)nc2s1 [Compound 200, 5-[2-methoxy-4-(1H-pyrazol-4-yl)phenyl]-N-methyl-N-(piperidin-4-yl)[1,3]thiazolo[5,4-d][1,3]thiazol-2-amine] | 1000 to 3000
16 | CC1CC(N(C)c2nc3sc(-c4cnc(-c5cn[nH]c5)cn4)nc3s2)CCN1C (centres unmarked) [Compound 132, N-(1,2-dimethylpiperidin-4-yl)-N-methyl-5-[5-(1H-pyrazol-4-yl)pyrazin-2-yl][1,3]thiazolo[5,4-d][1,3]thiazol-2-amine] | 100 to 500
17 | CN(c1nn2cc(-c3ccc(-c4cn[nH]c4)cc3O)nc2s1)C1CC2CCC(C1)N2 (stereo not drawn) [Compound 18, 2-{2-[(3-exo)-8-azabicyclo[3.2.1]oct-3-yl(methyl)amino]imidazo[2,1-b][1,3,4]thiadiazol-6-yl}-5-(1H-pyrazol-4-yl)phenol] | 100 to 500
18 | CN(c1nc2sc(-n3ccc(-c4cn[nH]c4)cc3=O)nc2s1)[C@H]1CCCNC1 [Compound 169, 1-(5-{methyl[(3S)-piperidin-3-yl]amino}[1,3]thiazolo[5,4-d][1,3]thiazol-2-yl)-4-(1H-pyrazol-4-yl)pyridin-2(1H)-one] | ≤ 100
19 | CN(c1nc2sc(-c3ccc(Br)c4cn[nH]c34)nc2s1)[C@H]1C[C@]2(C)CC[C@](C)(C1)N2 [Compound 111, 5-(4-bromo-1H-indazol-7-yl)-N-[(1R,3s,5S)-1,5-dimethyl-8-azabicyclo[3.2.1]octan-3-yl]-N-methyl[1,3]thiazolo[5,4-d][1,3]thiazol-2-amine] | ≤ 100
20 | CN(c1nc2sc(-c3cnc(-c4cn[nH]c4)cn3)nc2s1)C1CC(C)(C)NC(C)(C)C1 [Compound 163, N-methyl-5-[5-(1H-pyrazol-4-yl)pyrazin-2-yl]-N-(2,2,6,6-tetramethylpiperidin-4-yl)[1,3]thiazolo[5,4-d][1,3]thiazol-2-amine] | ≤ 100
21 | CC1CC(N(C)c2nc3sc(-c4ncc(-c5cn[nH]c5)cc4O)nc3s2)CCN1C (centres unmarked) [Compound 182, 2-{5-[(1,2-dimethylpiperidin-4-yl)(methyl)amino][1,3]thiazolo[5,4-d][1,3]thiazol-2-yl}-5-(1H-pyrazol-4-yl)pyridin-3-ol] | ≤ 100
22 | Cc1cn2cc(-c3nc4sc(C5CCNCC5)nc4s3)cc(C#N)c2n1 [Compound 10, 2-methyl-6-[5-(piperidin-4-yl)[1,3]thiazolo[5,4-d][1,3]thiazol-2-yl]imidazo[1,2-a]pyridine-8-carbonitrile] | 100 to 500
23 | CN(c1nc2sc(-c3ncc(-c4cn[nH]c4)nn3)nc2s1)[C@H]1C[C@]2(C)CC[C@](C)(C1)N2 [Compound 79, N-[(1R,3s,5S)-1,5-dimethyl-8-azabicyclo[3.2.1]octan-3-yl]-N-methyl-5-[6-(1H-pyrazol-4-yl)-1,2,4-triazin-3-yl][1,3]thiazolo[5,4-d][1,3]thiazol-2-amine] | ≤ 100
24 | CN(c1nc2sc(-c3cnc(-c4ccn(C)c(=O)c4)cn3)nc2s1)[C@H]1C[C@]2(C)CC[C@](C)(C1)N2 [Compound 92, 4-[5-(5-{[(1R,3s,5S)-1,5-dimethyl-8-azabicyclo[3.2.1]octan-3-yl](methyl)amino}[1,3]thiazolo[5,4-d][1,3]thiazol-2-yl)pyrazin-2-yl]-1-methylpyridin-2(1H)-one] | ≤ 100
25 | CN(c1nc2sc(-c3ccc(-c4cn[nH]c4)nn3)nc2s1)[C@@H]1C[C@H]2CC[C@@H](C1)N2 [Compound 168, N-[(1R,3s,5S)-8-azabicyclo[3.2.1]octan-3-yl]-N-methyl-5-[6-(1H-pyrazol-4-yl)pyridazin-3-yl][1,3]thiazolo[5,4-d][1,3]thiazol-2-amine] | ≤ 100
26 | CN(c1nc2sc(-c3ncc(Br)cc3O)nc2s1)[C@@H]1C[C@H]2CC[C@@H](C1)N2 [Compound 185, 2-(5-{[(1R,3s,5S)-8-azabicyclo[3.2.1]octan-3-yl](methyl)amino}[1,3]thiazolo[5,4-d][1,3]thiazol-2-yl)-5-bromopyridin-3-ol] | ≤ 100
27 | Cc1cn2nc(-c3nc4sc(C5CCNCC5)nc4s3)cc(C)c2n1 [Compound 12, 2,8-dimethyl-6-[5-(piperidin-4-yl)[1,3]thiazolo[5,4-d][1,3]thiazol-2-yl]imidazo[1,2-b]pyridazine] | 100 to 500
28 | Cc1cnn(-c2cnc(-c3nc4sc(N(C)C5CCNCC5)nc4s3)c(O)c2)c1 [Compound 63, 5-(4-methylpyrazol-1-yl)-2-[5-[methyl(4-piperidyl)amino]thiazolo[5,4-d]thiazol-2-yl]pyridin-3-ol] | 3000 to 9000
29 | CC1CC(N(C)c2nc3sc(-n4cnc(-c5cn[nH]c5)cc4=O)nc3s2)CCN1C (centres unmarked) [Compound 131, 3-{5-[(1,2-dimethylpiperidin-4-yl)(methyl)amino][1,3]thiazolo[5,4-d][1,3]thiazol-2-yl}-6-(1H-pyrazol-4-yl)pyrimidin-4(3H)-one] | 100 to 500
